Reference: ChEMBL document CHEMBL1201862, “PubChem BioAssay data set” (2004)
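Briefly, cells in 96-well plates were exposed to five compound concentrations for 48 h, and endpoints were estimated by linear interpolation. GI50 is the concentration that inhibits growth by half.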 Active and inactive are the calls of the source. No stated cut-off is given here; in the data, active = GI50 up to about 1.1 µM and inactive = higher.

How the values were obtained:
Experiment in all cases: inhibition of tumour cell growth, NCI panel, 48 h
DU-145 = test system: DU-145
SW-620 = test system: SW-620
OVCAR-8 = test system: OVCAR-8
SK-MEL-2 = test system: SK-MEL-2
MCF7 = test system: MCF7
NCI/ADR-RES = test system: NCI/ADR-RES
NCI-H23 = test system: NCI-H23
MOLT-4 = test system: MOLT-4
NCI-H226 = test system: NCI-H226
OVCAR-5 = test system: OVCAR-5
BT-549 = test system: BT-549
COLO 205 = test system: COLO 205
U-251 = test system: U-251
HL-60 = test system: HL-60
A498 = test system: A498
M14 = test system: M14
CAKI-1 = test system: CAKI-1
Hs-578T = test system: Hs-578T
NCI-H522 = test system: NCI-H522

Measured: GI50

c1ccc2c(c1)-c1ccccc1C2N1CC2CCC(CC2)C1
inactive: DU-145 29.9 µM | SW-620 22.1 µM | OVCAR-8 30 µM | SK-MEL-2 16 µM | MCF7 17.5 µM | NCI/ADR-RES 15.5 µM | NCI-H23 17.3 µM | MOLT-4 12.3 µM | NCI-H226 19.5 µM | OVCAR-5 18 µM | BT-549 16.8 µM | COLO 205 20.5 µM | U-251 17.1 µM | HL-60 2.92 µM | A498 20.3 µM | M14 26.7 µM | CAKI-1 32 µM | Hs-578T 3.37 µM | NCI-H522 10.5 µM

O=[N+]([O-])c1cccc(-c2cn3c(n2)Cc2ccccc2C3)c1
inactive: DU-145 > 100 µM | SW-620 > 100 µM | OVCAR-8 99.1 µM | SK-MEL-2 34.9 µM | MCF7 3.88 µM | NCI/ADR-RES > 100 µM | NCI-H23 59.6 µM | MOLT-4 9.68 µM | NCI-H226 > 100 µM | OVCAR-5 17.8 µM | BT-549 > 100 µM | COLO 205 45.5 µM | U-251 39.7 µM | HL-60 > 100 µM | A498 16.9 µM | M14 42.4 µM | CAKI-1 15.6 µM | Hs-578T 85.3 µM | NCI-H522 34.4 µM

O=c1n(CCCN2CCN(c3cccc(Cl)c3)CC2)nc2n1-c1ccc3ccccc3c1SC2
inactive: DU-145 > 100 µM | SW-620 > 100 µM | OVCAR-8 > 100 µM | SK-MEL-2 > 100 µM | MCF7 > 100 µM | NCI/ADR-RES > 100 µM | MOLT-4 7.93 µM | NCI-H226 > 100 µM | OVCAR-5 > 100 µM | BT-549 > 100 µM | COLO 205 4.4 µM | U-251 > 100 µM | HL-60 > 100 µM | A498 > 100 µM | CAKI-1 > 100 µM | Hs-578T > 100 µM | NCI-H522 > 100 µM

Cc1cc(S(=O)(=O)Nc2nc(-c3ccccn3)n[nH]2)c(S)cc1Cl
inactive: DU-145 19.2 µM | SW-620 12.2 µM | OVCAR-8 11 µM | SK-MEL-2 10.3 µM | MCF7 31.3 µM | NCI/ADR-RES 6.5 µM | MOLT-4 22.7 µM | NCI-H226 12.3 µM | OVCAR-5 15.5 µM | BT-549 17.9 µM | COLO 205 25.9 µM | U-251 13.3 µM | HL-60 16.1 µM | A498 16.9 µM | M14 15.2 µM | CAKI-1 5.21 µM | Hs-578T 28.8 µM | NCI-H522 27.4 µM

N=c1c2c3n(c4c(=O)n(-c5ccccc5)c(=S)n(c(=O)n1-c1ccccc1)c24)CCCCC3
inactive: DU-145 > 100 µM | SW-620 > 100 µM | OVCAR-8 > 100 µM | SK-MEL-2 > 100 µM | MCF7 > 100 µM | NCI/ADR-RES > 100 µM | NCI-H23 > 100 µM | NCI-H226 > 100 µM | OVCAR-5 > 100 µM | BT-549 > 100 µM | COLO 205 > 100 µM | U-251 > 100 µM | HL-60 > 100 µM | A498 > 96.2 µM | M14 > 100 µM | CAKI-1 > 100 µM | Hs-578T > 100 µM | NCI-H522 > 100 µM

O=C(O)CO[C@@]12C#C/C=C\C#C[C@@H]3N(C(=O)Oc4ccccc4)c4ccccc4[C@]14O[C@@]34CCC2
inactive: DU-145 43.3 µM | SW-620 47.6 µM | OVCAR-8 44.6 µM | SK-MEL-2 16.2 µM | MCF7 14.6 µM | NCI/ADR-RES 31.6 µM | NCI-H23 53.5 µM | MOLT-4 28.8 µM | NCI-H226 71.9 µM | BT-549 30.1 µM | COLO 205 20 µM | U-251 19.1 µM | HL-60 26.5 µM | A498 59.3 µM | M14 41.1 µM | CAKI-1 38.7 µM | Hs-578T 19.4 µM | NCI-H522 33.5 µM
